From patent US8658604B2, “Template-fixed beta-hairpin peptidomimetics with protease inhibitory activity” (Polyphor Ltd, priority 2005, dated 2014)
Where two headings read alike, the source gives them in different places. Where a SMILES comes first, the peptide text is derived from it.

Experiments:
[1] = target: T1, CathepsinG, from human neutrophils (Homo sapiens, UniProt P08311); assay: Enzymatic assay, cathepsin G
T1 sequence (P08311 21-244): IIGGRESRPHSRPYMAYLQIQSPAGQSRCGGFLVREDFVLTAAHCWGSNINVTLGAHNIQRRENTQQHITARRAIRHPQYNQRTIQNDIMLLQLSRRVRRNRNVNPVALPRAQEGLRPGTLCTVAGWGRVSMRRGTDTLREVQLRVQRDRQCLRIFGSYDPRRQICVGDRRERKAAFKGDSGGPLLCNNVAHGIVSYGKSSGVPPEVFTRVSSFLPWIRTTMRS

Chymase, from human skin = target: T2, Chymase, from human skin (Homo sapiens, UniProt P23946); assay: Enzymatic assay, chymase
T2 sequence (P23946 22-247): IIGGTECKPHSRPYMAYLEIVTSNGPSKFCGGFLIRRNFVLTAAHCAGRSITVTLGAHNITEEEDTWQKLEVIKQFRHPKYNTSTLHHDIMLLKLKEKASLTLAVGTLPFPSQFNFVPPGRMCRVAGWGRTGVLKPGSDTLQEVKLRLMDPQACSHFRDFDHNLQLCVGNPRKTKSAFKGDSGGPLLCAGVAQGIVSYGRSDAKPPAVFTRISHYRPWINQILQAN

[2] = target: T3, Elastase from human neutrophils (Homo sapiens, UniProt P08246); assay: Enzymatic assay, elastase; details: for Elastase at 100 μM %: at 100 μM (stated in cell instead of IC50)
T3 sequence (P08246 30-267): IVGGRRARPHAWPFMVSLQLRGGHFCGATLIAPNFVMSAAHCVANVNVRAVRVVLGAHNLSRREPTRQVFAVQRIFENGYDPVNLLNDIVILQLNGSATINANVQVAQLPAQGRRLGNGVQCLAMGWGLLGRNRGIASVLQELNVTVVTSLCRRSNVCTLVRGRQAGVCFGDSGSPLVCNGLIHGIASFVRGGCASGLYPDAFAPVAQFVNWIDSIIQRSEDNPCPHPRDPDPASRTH

[3] = target: Chymotrypsin, from human pancreas (Homo sapiens, UniProt P17538); assay: Enzymatic assay, chymotrypsin
[4] = target: Trypsin, from human pancreas (Homo sapiens, UniProt P07477); assay: Enzymatic assay, trypsin
[5] = system: Tryptase, from human lung; assay: Enzymatic assay, tryptase; details: at 100 μM
[6] = target: Thrombin, from Human Plasma (Homo sapiens, UniProt P00734); assay: Enzymatic assay, thrombin
[7] = target: Urokinase from human urine (Homo sapiens, UniProt P00749); assay: Enzymatic assay, urokinase

Chymotrypsin, from human pancreas, sequence (P17538 19-263): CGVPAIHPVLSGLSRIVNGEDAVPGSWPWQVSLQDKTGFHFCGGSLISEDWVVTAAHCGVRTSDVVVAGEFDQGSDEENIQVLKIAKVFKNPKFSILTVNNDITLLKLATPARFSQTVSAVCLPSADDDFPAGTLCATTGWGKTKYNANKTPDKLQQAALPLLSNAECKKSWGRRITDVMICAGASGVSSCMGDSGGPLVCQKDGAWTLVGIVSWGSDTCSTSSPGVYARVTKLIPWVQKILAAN

SMILES	IC50 ([1]; Cathepsin G IC50) [nM]	Chymase at 100 μM % (Chymase, from human skin) [%]	Elastase at 100 μM % [2] [at %]	Chymotrypsin at 100 μM % [3] [%]	Trypsin at 100 μM % [4] [%]	IC50 ([2]; Elastase IC50) [nM]	other results
CCCC[C@@H]1NC(=O)[C@H](CCCNC(=N)N)NC(=O)[C@@H]2CCCN2C(=O)[C@H]2CCCN2C(=O)[C@H](Cc2ccccc2)NC(=O)[C@H](CCCC)NC(=O)[C@H]([C@@H](C)CC)NC(=O)[C@@H]2CCCN2C(=O)[C@@H]2CCCN2C(=O)[C@H](CC(=O)O)NC(=O)[C@H](CO)NC(=O)[C@H](CCCCN)NC(=O)[C@H]([C@@H](C)O)NC1=O [Ex. 8] (HELM PEPTIDE1{R.[Nle].T.K.S.D.P.P.I.[Nle].F.[dP].P}$PEPTIDE1,PEPTIDE1,1:R1-13:R2$$$V2.0)	126	71.7	0.8	5.6	74.2		
CCCC[C@@H]1NC(=O)[C@@H]2CCCN2C(=O)[C@H]2CCCN2C(=O)[C@H](CO)NC(=O)[C@@H]2CSSC[C@H](NC1=O)C(=O)N[C@@H]([C@@H](C)O)C(=O)N[C@@H](CCCCN)C(=O)N[C@@H](CO)C(=O)N[C@@H](CC(=O)O)C(=O)N1CCC[C@H]1C(=O)N1CCC[C@H]1C(=O)N[C@@H]([C@@H](C)CC)C(=O)N2 [Ex. 10] (HELM PEPTIDE1{[Nle].C.T.K.S.D.P.P.I.C.S.[dP].P}$PEPTIDE1,PEPTIDE1,2:R3-10:R3|PEPTIDE1,PEPTIDE1,1:R1-13:R2$$$V2.0)	75	9.4	0.3		89.9		
CC[C@H](C)[C@@H]1NC(=O)[C@@H]2CCCN2C(=O)[C@@H]2CCCN2C(=O)[C@H](CC(=O)O)NC(=O)[C@H](CO)NC(=O)[C@H](CCCCN)NC(=O)[C@H]([C@@H](C)O)NC(=O)[C@@H]2CSSC[C@H](NC1=O)C(=O)N[C@@H](CO)C(=O)N1CCC[C@@H]1C(=O)N1CCC[C@H]1C(=O)N[C@@H](C1CCCCC1)C(=O)N2 [Ex. 11] (HELM PEPTIDE1{[O=C([C@@H](N[*:1])C1CCCCC1)[*:2]].C.T.K.S.D.P.P.I.C.S.[dP].P}$PEPTIDE1,PEPTIDE1,2:R3-10:R3|PEPTIDE1,PEPTIDE1,1:R1-13:R2$$$V2.0)	95	12.1	19	73.6	6.5		
CC[C@H](C)[C@@H]1NC(=O)[C@@H]2CCCN2C(=O)[C@@H]2CCCN2C(=O)[C@H](CC(=O)O)NC(=O)[C@H](CO)NC(=O)[C@H](CCCCN)NC(=O)[C@H]([C@@H](C)O)NC(=O)[C@@H]2CSSC[C@H](NC1=O)C(=O)N[C@@H](CCCNC(=N)N)C(=O)N1CCC[C@@H]1C(=O)N1CCC[C@H]1C(=O)N[C@@H](Cc1ccccc1Cl)C(=O)N2 [Ex. 13] (HELM PEPTIDE1{[O=C([C@H](Cc1ccccc1Cl)N[*:1])[*:2]].C.T.K.S.D.P.P.I.C.R.[dP].P}$PEPTIDE1,PEPTIDE1,2:R3-10:R3|PEPTIDE1,PEPTIDE1,1:R1-13:R2$$$V2.0)	100	19.9	8.2		95.0		
CC[C@H](C)[C@@H]1NC(=O)[C@@H]2CCCN2C(=O)[C@@H]2CCCN2C(=O)[C@H](CC(=O)O)NC(=O)[C@H](CN)NC(=O)[C@H](CCCCN)NC(=O)[C@H]([C@@H](C)O)NC(=O)[C@@H]2CSSC[C@H](NC1=O)C(=O)N[C@@H](CO)C(=O)N1CCC[C@@H]1C(=O)N1CCC[C@H]1C(=O)N[C@@H](Cc1ccccc1)C(=O)N2 [Ex. 25] (HELM PEPTIDE1{F.C.T.K.[NC[C@H](N[*:1])C(=O)[*:2]].D.P.P.I.C.S.[dP].P}$PEPTIDE1,PEPTIDE1,2:R3-10:R3|PEPTIDE1,PEPTIDE1,1:R1-13:R2$$$V2.0)	102	10.0	3.2		89.3		
CC[C@H](C)[C@@H]1NC(=O)[C@@H]2CCCN2C(=O)[C@@H]2CCCN2C(=O)[C@H](CC(=O)O)NC(=O)[C@H](CO)NC(=O)[C@H](CCCCN)NC(=O)[C@H]([C@@H](C)O)NC(=O)[C@@H]2CSSC[C@H](NC1=O)C(=O)N[C@@H](CO)C(=O)N[C@H](C)C(=O)N1CCC[C@H]1C(=O)N[C@@H](Cc1ccccc1)C(=O)N2 [Ex. 49] (HELM PEPTIDE1{F.C.T.K.S.D.P.P.I.C.S.[dA].P}$PEPTIDE1,PEPTIDE1,2:R3-10:R3|PEPTIDE1,PEPTIDE1,1:R1-13:R2$$$V2.0)	82	0		0	96	> 10000	Tryptase at 100 μM % [5]: 30.5%; Thrombin at 100 μM % [6]: 7.9%; Urokinase at 100 μM % [7]: 6.2%
CCCC[C@@H]1NC(=O)[C@@H]2CCCN2C(=O)[C@H]2CCCN2C(=O)[C@H](Cc2ccc(O)cc2)NC(=O)[C@@H]2CSSC[C@H](NC1=O)C(=O)N[C@@H]([C@@H](C)O)C(=O)N[C@@H](C)C(=O)N[C@@H](CO)C(=O)N[C@@H](CC1CCCCC1)C(=O)N1CCC[C@H]1C(=O)N1CCC[C@H]1C(=O)N[C@@H](CCC(N)=O)C(=O)N2 [Ex. 82] (HELM PEPTIDE1{[Nle].C.T.A.S.[Cha].P.P.Q.C.Y.[dP].P}$PEPTIDE1,PEPTIDE1,2:R3-10:R3|PEPTIDE1,PEPTIDE1,1:R1-13:R2$$$V2.0)						18	Tryptase at 100 μM % [5]: 44.5%; IC50 [3]: 72.9 nM
CCCC[C@@H]1NC(=O)[C@@H]2CCCN2C(=O)[C@H]2CCCN2C(=O)[C@H](Cc2ccc(O)cc2)NC(=O)[C@@H]2CSSC[C@H](NC1=O)C(=O)N[C@@H]([C@@H](C)O)C(=O)N[C@@H](C)C(=O)N[C@@H](CO)C(=O)N[C@@H]([C@@H](C)CC)C(=O)N1CCC[C@H]1C(=O)N1CCC[C@H]1C(=O)N[C@@H](CCC(N)=O)C(=O)N2 [Ex. 179] (HELM PEPTIDE1{[Nle].C.T.A.S.I.P.P.Q.C.Y.[dP].P}$PEPTIDE1,PEPTIDE1,2:R3-10:R3|PEPTIDE1,PEPTIDE1,1:R1-13:R2$$$V2.0)				76.0		50	Tryptase At 100 μM % [5]: 0%; IC50 [4]: > 100000 nM
C[C@@H](O)[C@@H]1NC(=O)[C@@H]2CSSC[C@H](NC(=O)[C@H](CC3CCCCC3)NC(=O)[C@@H]3CCCN3C(=O)[C@@H]3CCCN3C(=O)[C@H](CC(=O)O)NC(=O)[C@H](CO)NC(=O)[C@H](CCCCN)NC1=O)C(=O)N[C@@H](CO)C(=O)N1CCC[C@@H]1C(=O)N1CCC[C@H]1C(=O)N[C@@H](Cc1ccccc1)C(=O)N2 [compound 54] (HELM PEPTIDE1{F.C.T.K.S.D.P.P.[Cha].C.S.[dP].P}$PEPTIDE1,PEPTIDE1,2:R3-10:R3|PEPTIDE1,PEPTIDE1,1:R1-13:R2$$$V2.0)		12.9		18	90		IC50 ([1]; read-out: Cathepsin G IC50): 66 nM; IC50 ([2]; read-out: Elastase IC50): > 100000 nM; Urokinase at 100 μM % [7]: 3.2%
CCCC[C@@H]1NC(=O)[C@H](Cc2ccccc2)NC(=O)[C@H]2CCCN2C(=O)[C@H](Cc2ccc(O)cc2)NC(=O)[C@@H]2CSSC[C@H](NC1=O)C(=O)N[C@@H]([C@@H](C)O)C(=O)N[C@@H](C)C(=O)N[C@@H](CO)C(=O)N[C@@H]([C@@H](C)CC)C(=O)N1CCC[C@H]1C(=O)N1CCC[C@H]1C(=O)N[C@@H](CCC(N)=O)C(=O)N2 [compound 167] (HELM PEPTIDE1{[Nle].C.T.A.S.I.P.P.Q.C.Y.[dP].F}$PEPTIDE1,PEPTIDE1,2:R3-10:R3|PEPTIDE1,PEPTIDE1,1:R1-13:R2$$$V2.0)				60.2			Tryptase At 100 μM % [5]: 0.2%
